{"source": "patent US20170182090A1", "about": "“Sulfate Salt Solution Laxative Compositions and Methods of Use Thereof” (Braintree Laboratories, Inc., priority 2014, published 2017)", "key": {"[1]": {"system": "constipation", "settings": "in vivo; cited from earlier work"}, "[2]": {"system": "normal volunteers", "experiment": "Single dose laxative study in normal volunteers (Example 1, Study 008-211): stool output, BM frequency, time to first BM, stool water", "type": "in vivo, human", "procedure": "This single center study evaluated sulfate salt compositions containing 43.8 millimoles (mmol) sulfate salts (4.2 g total sulfate) or 80 mmol sulfate salts (7.7 g total sulfate) as compared to 10 mg bisacodyl for efficacy to induce a rapid, controlled bowel movement without significant gains or losses of electrolytes. Normal volunteers were given a single dose of laxative in an in-patient setting during which all stool and urine were collected for 24 hours after laxative administration. Efficacy was based on total stool output, bowel movement frequency and time to first bowel movement (BM). A time to first BM of less than three hours was considered ideal. Stool was analyzed to determine the gain or loss of electrolytes. Safety was assessed through the collection of adverse event data and analysis of urine electrolyte composition.\nNormal male and female volunteers in this single center study were enrolled to receive a single dose of a sulfate laxative formulations or bisacodyl in an open-label, non-randomized fashion.\nEnrolled study subjects received a single dose of a formulation of sulfate salts (dissolved in 120 ml water) and separately, 10 mg bisacodyl, in an open-label, non-randomized fashion. The sulfate preparations, shown below, were compounded by the investigator.\nAfter an eight hour (overnight) fast, study subjects ingested either a single dose of sulfate laxative (containing sodium sulfate and potassium sulfate) or, on a different day, bisacodyl. Sulfate was initially given with a 1:1 molar ratio sodium to potassium at a dose of 43.8 mmole sulfate salts (4.2 g total sulfate) sulfate to three study subjects. The dose was later increased to 80 mmole sulfate salts (7.7 g total sulfate) in one study subject. The 80 mmol sulfate salt formulation was then changed to a 3:1 sodium to potassium molar ratio for the final five study subjects. Bisacodyl was given at a dose of 10 mg.\nStool and urine were collected for 24 hours following laxative ingestion.\n(§1) Efficacy was assessed via quantitative measurements of stool weight, bowel movement frequency and time to first BM. All stools were collected, weighed and subsequently analyzed for water and electrolyte composition."}, "[3]": {"system": "normal volunteers", "settings": "bisacodyl 20 mg, n=11, cited from earlier work"}, "[4]": {"system": "normal volunteers", "experiment": "Stool electrolyte output and balance, Example 1", "type": "in vivo, human", "settings": "bisacodyl 10 mg", "procedure": "as §1\n(§2) Laxative related adverse events were assessed via subject completion of a study specific questionnaire. Specifically, subjects rated their experience with respect to abdominal cramping, abdominal bloating, abdominal pain, gas, nausea, and vomiting. Stool was analyzed for water and electrolyte composition.\nStools collected from study subjects were analyzed for sodium, potassium and sulfate. The data for the 80 mmol sulfate salt formulation and 10 mg bisacodyl are discussed here. The total electrolyte content of the stool was compared with the total electrolyte quantity ingested from the test preparations.\nThe 80 mmol sulfate salt formulation was administered initially as a formula with a 1:1 sodium to potassium ratio on a molar basis (1 study subject; DC). Based on the stool analysis results from this subject (see below) the formulation was modified to a 3:1 sodium to potassium ratio for the remaining 5 study subjects. Stool electrolyte balance results are summarized below in Tables 6 and 7."}, "[5]": {"system": "normal volunteers", "experiment": "Adverse events and symptoms, Example 1", "type": "in vivo, human", "settings": "bisacodyl 10 mg single dose", "procedure": "as §2"}, "[6]": {"settings": "bisacodyl 10 mg single dose, mean, n=7"}, "[7]": {"settings": "bisacodyl 10 mg single dose, n=7"}, "[8]": {"settings": "bisacodyl 10 mg, 24 hours following laxative ingestion"}}, "note": "Where two headings read alike, the source gives them in different places."}
{"compound": "C[N+]1(CC2CC2)CC[C@]23c4c5ccc(O)c4O[C@H]2C(=O)CC[C@@]3(O)[C@H]1C5", "note": "(stereo partly shown) [Relistor]", "values": [{"measurement": "success rate", "setting": "[1]", "result": 60, "unit": "%"}]}
{"compound": "CC(=O)Oc1ccc(C(c2ccc(OC(C)=O)cc2)c2ccccn2)cc1", "note": "[Bisacodyl]", "values": [{"measurement": "Stool Water", "setting": "[2]; bisacodyl 10 mg single dose, mean (SD), n=7", "result": "85.8% (2.4)"}, {"measurement": "BM Frequency", "setting": "[2]; [6]", "result": "2.9 #/12 hrs"}, {"measurement": "Stool Output", "setting": "[2]; [6]", "result": 681, "unit": "g/12 hrs"}, {"measurement": "Time to first BM", "setting": "[2]; [6]", "result": 4.4, "unit": "h"}, {"measurement": "Time to first BM", "setting": "[2]; bisacodyl 10 mg single dose, mean, n=7, listed as bisacodyl", "result": "about 5 hrs"}, {"measurement": "Subjects with BM <3 hrs, number", "setting": "[2]; [7]", "result": 1}, {"measurement": "Subjects with BM <3 hrs, percent", "setting": "[2]; [7]", "result": "(14%)"}, {"measurement": "Subjects with BM <3 hrs, percent", "setting": "[2]; bisacodyl 10 mg single dose, n=7, listed as bisacodyl", "result": 14, "unit": "%"}, {"measurement": "bowel movements, average", "setting": "[2]; [8]", "result": "about 3"}, {"measurement": "stool, average", "setting": "[2]; [8]", "result": "~700", "unit": "grams"}, {"measurement": "BM Frequency", "setting": "[3]; mean", "result": "5.4 #/12hrs"}, {"measurement": "Stool Output", "setting": "[3]; mean", "result": 757, "unit": "g/12hrs"}, {"measurement": "Time to first BM", "setting": "[3]; mean", "result": 3.2, "unit": "h"}, {"measurement": "# with BM <3 hrs, number", "setting": "[3]", "result": 5}, {"measurement": "# with BM <3 hrs, percent", "setting": "[3]", "result": "(45%)"}, {"measurement": "# with BM <3 hrs, percent", "setting": "[3]; listed as bisacodyl", "result": 45, "unit": "%"}, {"measurement": "potassium loss", "setting": "[4]", "result": "about 2 grams"}, {"measurement": "sodium losses", "setting": "[4]", "result": 1.2, "unit": "grams"}, {"measurement": "adverse events, gastrointestinal symptoms", "setting": "[5]", "result": "one bisacodyl volunteer reported severe cramping"}]}
{"compound": "C=CCN1CC[C@]23c4c5ccc(O)c4O[C@H]2[C@@H](OCCOCCOCCOCCOCCOCCOCCOC)CC[C@@]3(O)[C@H]1C5.O=C(O)C(=O)O", "note": "[Movantik]", "values": [{"measurement": "success rate", "setting": "[1]", "result": "approximately 45%"}]}
{"compound": "CCCCC(F)(F)[C@@]1(O)CC[C@H]2[C@@H](CC(=O)[C@@H]2CCCCCCC(=O)O)O1", "note": "[Amitiza]", "values": [{"measurement": "success rate", "setting": "[1]", "result": 30, "unit": "%"}]}
